Assay results published in patent US10624965B2, “Immunotherapy treatments and compositions” (SUSAVION BIOSCIENCES, INC., priority 2014, dated 2020).
Positions of bridges follow the written chain, without caps; N, C: chain ends. Chains are numbered I, II in the order given. No end group written: not given here.

Assays:
[1] = parameters: species or system mice
Source text: (§1) It is important to note that during and after drug administration there was no change in mouse weight or behavior, indicating no overt toxicity related to treatment.

[2] = test system: serum cytokines and chemokines; details: mouse, in vivo
Description: To determine whether the responses in serum proteins would be different in tumor-bearing mice from those in healthy mice, sera were collected from female mice in which breast cancer 4T1 cells had been implanted. After the tumors had grown over a period of 10 to 12 days to a size of ˜500 mm^3, tetravalent svL4 was injected subcutaneously at doses of 0.1 and 1.0 nmol/g. Blood was withdrawn and sera prepared 4 hours after injection. The sera of untreated animals had low levels of cytokines and chemokines at 4 h. With a few proteins, such as IL-1β, IL-2, IL-6 and TNFα, the values were very low in untreated animals and upon treatment with svL4 were increased but still nearly undetectable on the array blots. […] Several cytokines that increased but were still low in amount included GM-CSF, CCL4, IGFBP-1, IL-21, lymphotoxin-α, and IL-17. Major proteins included CCL1, CCL8, CCL28, Endostatin, Fas, HVEM, IL-11, IL-12p70, IL-16, IL-27, IL-28, MIP-2, MMP-9, NOV, Soggy-1, SPARC, TIMP-2, TLR2 and VEGF-B. In some cases, the higher dose caused a higher amount of the protein, whereas with several proteins the amount was lower with the higher dose. […] A number of soluble proteins were identified as cell-surface receptors, such as Fas, HVEM and TLR2, which indicated significant shedding by activated cells. […]

[3] = in vivo
Source text: as §1

## I: VQATQSNQHTPRGGGSKK-NH2 / II: VQATQSNQHTPRGGGSK / III: VQATQSNQHTPRGGGS / IV: VQATQSNQHTPRGGGS (amide I:17-IV:C, I:18-II:C, II:17-III:C) [svL4, [(VQATQSNQHTPRGGGS)2K]2K—NH2]
[1]
  binding of peptides to sera (antigenicity): negative
[2]
  pattern typical of a toxic "cytokine storm": did not occur
[3]
  change in mouse weight or behavior (overt toxicity): no change
[3]; mouse
  irritation or formation of fibrous or granulomatous tissue at injection region: no apparent irritation
